Experimental data as given in article PMC4467398, “Preclinical antitumor activity of ST7612AA1: a new oral thiol-based histone deacetylase (HDAC) inhibitor” (Oncotarget, 2014).

Tested on: DOHH2 and TMD8 DLBCL cells
Assay: Gene expression profiling (HumanHT-12 v4 BeadChip, limma), ST7612AA1 300 nM 8 hrs vs DMSO
Type: cell-based, human

Q: Which “AveExpr.ST7612 TANK (probe ILMN_1715069)” value (300 nM 8 hrs) does the source give for `CC(=O)SCCCCC[C@H](NC(=O)[C@H]1CCC(=O)N1)C(=O)Nc1ccccc1` [ST7612AA1] here?
A: 8.21E-01

Q: What about the “AveExpr.ST7612 TBC1D7 (probe ILMN_1661622)” value (300 nM 8 hrs) of the same compound?
A: 7.33E-01

Q: What about the “AveExpr.ST7612 TBC1D16 (probe ILMN_1758457)” value (300 nM 8 hrs) of the same compound?
A: 7.24E-01

Q: What about the “AveExpr.ST7612 TCEA2 (probe ILMN_1665526)” value (300 nM 8 hrs) of the same compound?
A: 8.50E-01

Q: And the “AveExpr.ST7612 TCEAL3 (probe ILMN_1734190)” value (300 nM 8 hrs)?
A: 7.88E-01

Q: What about the “AveExpr.ST7612 TCTN1 (probe ILMN_1685124)” value (300 nM 8 hrs) of the same compound?
A: 7.81E-01

Q: What about the “AveExpr.ST7612 TESK2 (probe ILMN_1654370)” value (300 nM 8 hrs) of the same compound?
A: 8.37E-01

Q: What about the “AveExpr.ST7612 TMEM14A (probe ILMN_1785191)” value (300 nM 8 hrs) of the same compound?
A: 7.29E-01

Q: What about the “AveExpr.ST7612 TMEM49 (probe ILMN_1692754)” value (300 nM 8 hrs) of the same compound?
A: 8.49E-01

Q: And the “AveExpr.ST7612 TMEM154 (probe ILMN_2088124)” value (300 nM 8 hrs)?
A: 6.89E-01

Q: What about the “AveExpr.ST7612 TMOD2 (probe ILMN_3250273)” value (300 nM 8 hrs) of the same compound?
A: 7.57E-01

Q: What about the “AveExpr.ST7612 TPRG1L (probe ILMN_1727479)” value (300 nM 8 hrs) of the same compound?
A: 7.86E-01

Q: What about the “AveExpr.ST7612 TPST1 (probe ILMN_1651950)” value (300 nM 8 hrs) of the same compound?
A: 7.51E-01

Q: What about the “AveExpr.ST7612 TPST2 (probe ILMN_1695432)” value (300 nM 8 hrs) of the same compound?
A: 7.18E-01

Q: And the “AveExpr.ST7612 TRAFD1 (probe ILMN_1758250)” value (300 nM 8 hrs)?
A: 8.52E-01

Q: And the “AveExpr.ST7612 UBE2A (probe ILMN_2307455)” value (300 nM 8 hrs)?
A: 7.18E-01

Q: What about the “AveExpr.ST7612 UBTD1 (probe ILMN_1794914)” value (300 nM 8 hrs) of the same compound?
A: 8.56E-01

Q: What about the “AveExpr.ST7612 UCP2 (probe ILMN_1685625)” value (300 nM 8 hrs) of the same compound?
A: 7.30E-01

Q: And the “AveExpr.ST7612 UNC84A (probe ILMN_1772316)” value (300 nM 8 hrs)?
A: 7.21E-01

Q: What about the “AveExpr.ST7612 UPLP (probe ILMN_3236765)” value (300 nM 8 hrs) of the same compound?
A: 7.46E-01

Q: What about the “AveExpr.ST7612 VASH2 (probe ILMN_1692698)” value (300 nM 8 hrs) of the same compound?
A: 7.31E-01

Q: What about the “AveExpr.ST7612 VPS8 (probe ILMN_1678268)” value (300 nM 8 hrs) of the same compound?
A: 7.47E-01

Q: And the “AveExpr.ST7612 WDR19 (probe ILMN_1655117)” value (300 nM 8 hrs)?
A: 7.77E-01

Q: And the “AveExpr.ST7612 YPEL5 (probe ILMN_1711069)” value (300 nM 8 hrs)?
A: 6.99E-01

Q: What about the “AveExpr.ST7612 ZDHHC8 (probe ILMN_1789492)” value (300 nM 8 hrs) of the same compound?
A: 8.85E-01

Q: And the “AveExpr.ST7612 ZNF775 (probe ILMN_1691702)” value (300 nM 8 hrs)?
A: 7.39E-01

Q: And the “log ratio 1999-08-31 (probe ILMN_1659953)” value (300 nM 8 hrs vs DMSO)?
A: 8.50E-01

Q: And the “log ratio (probe ILMN_1816244)” value (300 nM 8 hrs vs DMSO)?
A: 7.08E-01

Q: And the “log ratio (probe ILMN_1827736)” value (300 nM 8 hrs vs DMSO)?
A: 8.76E-01

Q: What about the “log ratio (probe ILMN_1909886)” value (300 nM 8 hrs vs DMSO) of the same compound?
A: 7.98E-01

Q: What about the “log ratio AACS (ILMN_1698554)” value (300 nM 8 hrs vs DMSO) of the same compound?
A: 6.24E-01

Q: And the “log ratio ABCA7 (probe ILMN_1743205)” value (300 nM 8 hrs vs DMSO)?
A: 7.64E-01

Q: And the “log ratio ABCC4 (ILMN_1788457)” value (300 nM 8 hrs vs DMSO)?
A: -8.19E-01

Q: And the “log ratio ABCC4 (ILMN_2194009)” value (300 nM 8 hrs vs DMSO)?
A: -8.58E-01

Q: And the “log ratio ABCE1 (ILMN_2330267)” value (300 nM 8 hrs vs DMSO)?
A: -7.82E-01

Q: What about the “log ratio ACAT2 (ILMN_1708672)” value (300 nM 8 hrs vs DMSO) of the same compound?
A: -1.01E+00

Q: What about the “log ratio ACOT7 (ILMN_2332250)” value (300 nM 8 hrs vs DMSO) of the same compound?
A: 6.55E-01

Q: What about the “log ratio ACSL3 (ILMN_2360705)” value (300 nM 8 hrs vs DMSO) of the same compound?
A: 5.95E-01

Q: And the “log ratio ACSL5 (ILMN_1705247)” value (300 nM 8 hrs vs DMSO)?
A: -1.24E+00

Q: What about the “log ratio ACSL5 (ILMN_2370882)” value (300 nM 8 hrs vs DMSO) of the same compound?
A: -9.69E-01

Q: And the “log ratio ADARB1 (probe ILMN_1679797)” value (300 nM 8 hrs vs DMSO)?
A: 7.60E-01

Q: And the “log ratio ADD3 (ILMN_1787378)” value (300 nM 8 hrs vs DMSO)?
A: 6.27E-01

Q: What about the “log ratio ADD3 (ILMN_1814526)” value (300 nM 8 hrs vs DMSO) of the same compound?
A: 6.45E-01

Q: What about the “log ratio ADD3 (ILMN_2311278)” value (300 nM 8 hrs vs DMSO) of the same compound?
A: 6.14E-01

Q: And the “log ratio ADIPOR2 (ILMN_2224833)” value (300 nM 8 hrs vs DMSO)?
A: 6.41E-01

Q: What about the “log ratio ADNP2 (ILMN_2080751)” value (300 nM 8 hrs vs DMSO) of the same compound?
A: 6.66E-01

Q: And the “log ratio ADRBK1 (ILMN_3307926)” value (300 nM 8 hrs vs DMSO)?
A: -6.13E-01

Q: And the “log ratio ADSS (ILMN_2092664)” value (300 nM 8 hrs vs DMSO)?
A: -8.15E-01

Q: And the “log ratio AFMID (ILMN_1707551)” value (300 nM 8 hrs vs DMSO)?
A: 6.36E-01

Q: And the “log ratio AGTPBP1 (ILMN_1718071)” value (300 nM 8 hrs vs DMSO)?
A: 6.75E-01

Q: What about the “log ratio AKAP8 (ILMN_1741572)” value (300 nM 8 hrs vs DMSO) of the same compound?
A: -8.28E-01

Q: What about the “log ratio AKAP13 (ILMN_2396956)” value (300 nM 8 hrs vs DMSO) of the same compound?
A: 6.04E-01

Q: And the “log ratio ALDH2 (probe ILMN_1793859)” value (300 nM 8 hrs vs DMSO)?
A: 8.03E-01

Q: And the “log ratio ALDH3A2 (ILMN_1794825)” value (300 nM 8 hrs vs DMSO)?
A: 6.08E-01

Q: What about the “log ratio ALG14 (ILMN_2191822)” value (300 nM 8 hrs vs DMSO) of the same compound?
A: -6.09E-01

Q: And the “log ratio ALOX5 (probe ILMN_1680996)” value (300 nM 8 hrs vs DMSO)?
A: 8.46E-01

Q: And the “log ratio ALS2 (ILMN_1750256)” value (300 nM 8 hrs vs DMSO)?
A: 6.20E-01

Q: What about the “log ratio AMOT (probe ILMN_1792409)” value (300 nM 8 hrs vs DMSO) of the same compound?
A: 7.65E-01

Q: And the “log ratio AMZ2 (ILMN_1801606)” value (300 nM 8 hrs vs DMSO)?
A: 6.00E-01

Q: What about the “log ratio ANAPC13 (ILMN_1793894)” value (300 nM 8 hrs vs DMSO) of the same compound?
A: -1.08E+00

Q: And the “log ratio ANKLE1 (ILMN_3243457)” value (300 nM 8 hrs vs DMSO)?
A: -8.03E-01

Q: And the “log ratio ANKMY2 (ILMN_1784292)” value (300 nM 8 hrs vs DMSO)?
A: 5.99E-01

Q: And the “log ratio ANKRD6 (ILMN_2178587)” value (300 nM 8 hrs vs DMSO)?
A: 6.74E-01

Q: And the “log ratio ANKRD41 (ILMN_2091590)” value (300 nM 8 hrs vs DMSO)?
A: -9.47E-01

Q: What about the “log ratio ANP32B (ILMN_1684293)” value (300 nM 8 hrs vs DMSO) of the same compound?
A: -9.66E-01

Q: What about the “log ratio APAF1 (probe ILMN_1659463)” value (300 nM 8 hrs vs DMSO) of the same compound?
A: 8.78E-01

Q: And the “log ratio APLP1 (probe ILMN_1763834)” value (300 nM 8 hrs vs DMSO)?
A: 8.17E-01

Q: What about the “log ratio APLP2 (ILMN_1710482)” value (300 nM 8 hrs vs DMSO) of the same compound?
A: 5.98E-01

Q: And the “log ratio ARFIP1 (ILMN_2403906)” value (300 nM 8 hrs vs DMSO)?
A: 5.95E-01

Q: What about the “log ratio ARG2 (ILMN_1800898)” value (300 nM 8 hrs vs DMSO) of the same compound?
A: 6.68E-01

Q: And the “log ratio ARID2 (ILMN_2182335)” value (300 nM 8 hrs vs DMSO)?
A: -6.15E-01

Q: And the “log ratio ARL6IP1 (probe ILMN_1708416)” value (300 nM 8 hrs vs DMSO)?
A: 6.93E-01

Q: What about the “log ratio ARSB (ILMN_2242937)” value (300 nM 8 hrs vs DMSO) of the same compound?
A: -9.59E-01

Q: What about the “log ratio ATG2A (probe ILMN_1756006)” value (300 nM 8 hrs vs DMSO) of the same compound?
A: 8.92E-01

Q: What about the “log ratio ATP6V0C (ILMN_1789005)” value (300 nM 8 hrs vs DMSO) of the same compound?
A: 6.37E-01
